Source: US12263248B2, “Compounds and compositions for intracellular delivery of therapeutic agents” (ModernaTX, Inc., priority 2018, dated 2025)

Assays:
hEPO mRNA [1] = test: hEPO expression after intramuscular administration to mice; type: in vivo; conditions: Table 3I, hEPO
Method: The expression of hEPO and cytokine induction in mice intravenously administered a nanoparticle composition at a dose of 0.5 mpk were measured at 3, 6, and 24 hours. […] The expression of hEPO in mice intramuscularly administered a nanoparticle composition from Table 1B at a dose of 0.01 mpk were measured at 3, 6, and 24 hours.
(§1) Blood collection and analysis for hEPO. Blood was collected from mice or rats via the tail vein and hEPO concentrations were determined using a hEPO ELISA assay.

[2] = Particle size and polydispersity index of nanoparticle compositions (Zetasizer Nano ZS); type: physicochemical
Outline: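 Nanoparticle compositions are diluted in 1×PBS, then size and polydispersity index are read on a Zetasizer Nano ZS instrument.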

[3] = Encapsulation efficiency of RNA (QUANT-IT RIBOGREEN RNA assay); type: physicochemical
Outline: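 RiboGreen fluorescence (ex ~480, em ~520 nm) compared between intact samples and Triton X-100-lysed samples after 15 min at 37 °C in TE buffer, pH 7.5. Percent free RNA is the blank-corrected intact/disrupted ratio.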

[4] = Apparent (surface) pKa of the LNP formulation (TNS assay); type: physicochemical; conditions: for pKa: Table 1A; for App. pKa: Table 3F
Outline: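 LNP (0.04 mg/mL mRNA) mixed with TNS reagent in 21 buffers spanning about pH 3-12, in triplicate; fluorescence plotted against pH as sigmoidal curve. Apparent pKa taken as […] curve inflection point; validated in 1× PBS and 20 mM Tris w/8% sucrose.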

luciferase (Luc) mRNA [5] = test: Luc expression, whole body bioluminescence after intravenous administration to mice; type: in vivo; conditions: Table 3E; intravenous
Outline: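 Luc mRNA nanoparticle formulations given intravenously to mice (n=6) at 0.5 mg/kg; whole-body bioluminescence imaged at 3, 6 and 24 h. CD-1 mice received IP D-luciferin (200 μL of 15 mg/mL) 15 min before imaging; total flux quantified by region of interest.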

[6] = Lipid clearance: lipid level in mouse liver tissue (LC-MS/MS); type: in vivo; conditions: Table 3E, mouse liver
hEPO mRNA [7] = test: hEPO expression after intravenous administration to rats; type: in vivo, rat; conditions: Table 19B; for [hEPO]: species, dose and time not given
Method: The expression of hEPO and cytokine induction in rats intravenously administered a nanoparticle composition at a dose of 2.0 mpk was measured at 6 h.
(§2) The expression of hEPO in rats intravenously administered a nanoparticle composition at a dose of 0.2 mpk or 2.0 mpk was measured at 6 hours. Table 16 summarize the ratio of hEPO expression levels using various nanoparticle compositions as compared to the hEPO expression level using MC3 formulation and the lipid levels in the liver measured 48 hours after administration, as described above. Tables 17 and 18 summarize the lipid levels in the liver and spleen measured 48 hours after administration of Compounds 28, 33, 53, and 54. Liver and spleen levels represent the average values calculated for 3 rats in each group. As is shown in Tables 17 and 18, less than 10% of Compounds 28, 33, 53, and 54 remained in the liver after 48 hours, while greater than 60% of MC3 remained.
The expression of hEPO induced by intravenous administration to rats of nanoparticle compositions at various doses was measured at 2, 4, 6, 8, 24, and 48 hour time points. FIGS. 3-6 respectively summarize the hEPO expression measured upon intravenous administration of formulations including Compounds 26, 18, 25, and MC3 to rat at various doses. The lipid levels of Compound 26 in the liver after 48 hours were about 19%.
(§3) 005781 The expression of hEPO and lipid levels in the liver and spleen in rats intravenously administered a nanoparticle composition at a dose of 0.2 mpk was measured at various time points. Compounds 18 and 25 were selected for comparison with MC3. Lipids were formulated according to the standard MC3 formulation described above. Rats were administered intravenously a single 0.2 mpk dose and expression monitored at 0.25, 0.5, 1, 2, 4, 8, 24, and 48 hours after administration.
as §1

[8] = Residual lipid levels in rat liver and spleen (UPLC-MS); type: in vivo; conditions: Table 19B, liver, 24 h
Method: At 48 h liver tissue was harvested for lipid quantification. To pre-weighed tissues, Milli-Q water was added (900 μL water per 100 mg tissue). Tissues were homogenized using an Omni probe homogenizer until uniform. 50 μL of samples and matrix calibration standards were aliquoted into a 96-well plate. 50 μL of blank matrix for matrix blanks and control blanks were aliquoted. 400 μL is spiking solution were manually added to all samples except matrix blanks. 400 μL of 50:50 ACN:IPA were manually added to matrix blanks. The plate was covered and the samples vortexed and centrifuged for 5 minutes at >3000 rpm. 200 μL of the samples were transferred into a clean 96-well plate for analysis. Samples were analyzed on a Waters Acquity UPLC using a Higgins Analytical Clipeus C8 column ([…], 30×2.1 mm) and a gradient of either 70-95% or 60-95% (Mobile Phase A: 5 mM ammonium formate in 50:50:1 H2O:MeOH:formic acid; Mobile Phase B: 5 mM ammonium formate in 100:1 MeOH:formic acid) over 1.3 min at 1.2 mL/min (column temperature 55° C.). Detection was based on electrospray ionization (ESI) in positive mode using a Sciex API5500 Mass Spectrometer.
as §2, §3

luciferase (Luc) mRNA [9] = test: Luc expression (total flux) after intramuscular administration; type: in vivo, mice; conditions: for Novel lipid/MC3 expression ratio, 6 hr. time point, i.m. Luc: intramuscular, relative to MC3 formulation; for i.m. Lipid/MC3 0.01 mpk, Luc, 6 h: Table 3B
Outline: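 Mice given a single intramuscular dose of lipid nanoparticle formulations carrying modified Luc mRNA, alone or with H10 mRNA, at 0.001 or 0.01 mpk total. Luciferase expression recorded as total flux.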

[10] = Table 1A, lipid:DSPC:cholesterol:PEG-DMG 50:10:38.5:1.5 mol %
[11] = Table 1B, formulated with hEPO mRNA

| PDI ([2]; Table 1A) | Size (nm) [2, 10] [nm] | PDI [2, 11] | Size (nm) [2, 11] [nm] | EE (%) ([3]; Table 1A) | EE (%) [3, 11] [%] | pKa [4] | % Remaining dose at 6 h ([6]; 6 h) [%] | % Remaining dose at 24 h ([6]; 24 h) [%] | % dose remaining, liver, 24 h [8] [%] | App. pKa [4] | SMILES | Lipid/MC3 6 h timepoint (hEPO mRNA [1]) | Lipid/MC3 AUC (hEPO mRNA [1]) | 6 h BLI Lipid/MC3 (luciferase (Luc) mRNA [5]) | AUC (hEPO) (hEPO mRNA [7]) [pg·h/mL] | Lipid/MC3 ([hEPO] ratio) (hEPO mRNA [7]; relative to MC3) | Lipid/MC3 AUC (hEPO mRNA [7]; relative to MC3) | [hEPO] (hEPO mRNA [7]) [pg/mL] | Novel lipid/MC3 expression ratio, 6 hr. time point, i.m. Luc (luciferase (Luc) mRNA [9]) | i.m. Lipid/MC3 0.01 mpk, Luc, 6 h (luciferase (Luc) mRNA [9]) |
| --- | --- | --- | --- | --- | --- | --- | --- | --- | --- | --- | --- | --- | --- | --- | --- | --- | --- | --- | --- | --- |
| 0.13 | 77.2 | 0.16 | 85.8 | 94.2 | 96.5 | 6.47 | 0.282 | 0 | 0.04 | – | CCCCCCCCC(CCCCCCCC)OC(=O)CCCCCCCN(CCO)CCCCCCCC(=O)OCC(C)CCCCCCC (stereo not drawn) [Compound 184, Heptadecan-9-yl 8-((2-hydroxyethyl)(8-((2-methylnonyl)oxy)-8-oxooctyl)amino)octanoate] | – | – | 7.46 | 1.41e+08 | 7.13 | 7.64 | 1.05e+07 | – | – |
| – | – | 0.16 | 95.5 | – | 93.9 | – | – | – | 0.00 | – | CCCCCCCCC(CCCCCCCC)OC(=O)CCCCCCCN(CCO)CCCCCCCCCC(=O)OCCCCCCC [Compound 189, Heptyl 10-((8-(heptadecan-9-yloxy)-8-oxooctyl)(2-hydroxyethyl)amino)decanoate] | – | – | – | 4.35e+07 | – | 2.35 | 3.01e+06 | – | – |
| – | – | 0.22 | 96.3 | – | 94.7 | – | – | – | 0.03 | – | CCCCCCCCCOC(=O)CCCCCCCN(CCO)CCCCCCC(C)OC(=O)C(CCCCCCCC)CCCCCCCC (stereo not drawn) [Compound 234, 8-((2-Hydroxyethyl)(8-(nonyloxy)-8-oxooctyl)amino)octan-2-yl 2-octyldecanoate] | – | – | – | 5.17e+07 | – | – | 3.56e+06 | – | – |
| 0.14 | 84.4 | – | – | 99.0 | – | 6.48 | – | – | – | – | CCCCCCCCCOC(=O)CCCCCCCN(CCCCCCCC(=O)OC(CCCCCCCC)CCCCCCCC)CCCNc1c(NC)c(=O)c1=O [Compound 182, Heptadecan-9-yl 8-((3-((2-(methylamino)-3,4-dioxocyclobut-1-en-1-yl)amino)propyl)(8-(nonyloxy)-8-oxooctyl)amino)octanoate] | 1.6 | 1.2 | – | – | – | – | – | – | – |
| 0.15 | 76.2 | 0.19 | 95.3 | 97.65 | 97.3 | – | – | – | 0.36 | – | CCCCCCCCCOC(=O)CCCCCCCN(CCCCCCCC(=O)OC(CCCCCCCC)CCCCCCCC)CCCN/C(=N/[N+](=O)[O-])NC [Compound 200, Heptadecan-9-yl (E)-8-((3-(3-methyl-2-nitroguanidino)propyl)(8-(nonyloxy)-8-oxooctyl)amino)octanoate] | 2.6 | 2.7 | – | 2.4e+07 | – | 1.30 | 1.72e+06 | 8.11 | – |
| – | – | 0.23 | 150.3 | – | 76.3 | – | – | – | 0.00 | – | CCCCCCCCCOC(=O)CCCCCCCN(CCO)CCCCCC(=O)OC1CCC(CCCCC)CC1 (stereo not drawn) [Compound 232, Nonyl 8-((2-hydroxyethyl)(6-oxo-6-((4-pentylcyclohexyl)oxy)hexyl)amino)octanoate] | – | – | – | 73800 | – | <0.01 | 7024.114 | – | – |

The next lines start with the compound.

| SMILES | PDI ([2]; Table 1A) | Size (nm) [2, 10] [nm] | PDI [2, 11] | Size (nm) [2, 11] [nm] | EE (%) ([3]; Table 1A) | EE (%) [3, 11] [%] | pKa [4] | % Remaining dose at 6 h ([6]; 6 h) [%] | % Remaining dose at 24 h ([6]; 24 h) [%] | % dose remaining, liver, 24 h [8] [%] | App. pKa [4] | Lipid/MC3 6 h timepoint (hEPO mRNA [1]) | Lipid/MC3 AUC (hEPO mRNA [1]) | 6 h BLI Lipid/MC3 (luciferase (Luc) mRNA [5]) | AUC (hEPO) (hEPO mRNA [7]) [pg·h/mL] | Lipid/MC3 ([hEPO] ratio) (hEPO mRNA [7]; relative to MC3) | Lipid/MC3 AUC (hEPO mRNA [7]; relative to MC3) | [hEPO] (hEPO mRNA [7]) [pg/mL] | Novel lipid/MC3 expression ratio, 6 hr. time point, i.m. Luc (luciferase (Luc) mRNA [9]) | i.m. Lipid/MC3 0.01 mpk, Luc, 6 h (luciferase (Luc) mRNA [9]) |
| --- | --- | --- | --- | --- | --- | --- | --- | --- | --- | --- | --- | --- | --- | --- | --- | --- | --- | --- | --- | --- |
| CCCCCCCCCOC(=O)CCCCCCCN(CCCCCCCC(=O)OC(CCCCCCCC)CCCCCCCC)CCCNC(=O)C(C)C [Compound 194, Heptadecan-9-yl 8-((3-isobutyramidopropyl)(8-(nonyloxy)-8-oxooctyl)amino)octanoate] | – | – | – | – | – | – | – | – | – | – | – | 5.5 | 6.2 | – | – | – | – | – | – | – |
| CCCCCCCCCOC(=O)CCCCCCCN(CCCCCCCC(=O)OC(CCCCCCCC)CCCCCCCC)CCNC(C)=O [Compound 244, Heptadecan-9-yl 8-((2-acetamidoethyl)(8-(nonyloxy)-8-oxooctyl)amino)octanoate] | – | – | – | – | – | – | – | – | – | – | – | 0.4 | 0.4 | – | – | – | – | – | – | – |
| CCCCCCCCCOC(=O)CCCCCCCN(CCCCCCCC(=O)OC(CCCCCCCC)CCCCCCCC)CCCNC(=O)COC [Compound 178, Heptadecan-9-yl 8-((3-(2-methoxyacetamido)propyl)(8-(nonyloxy)-8-oxooctyl)amino)octanoate] | 0.12 | 104.2 | – | – | 94.7 | – | 6.90 | – | – | – | – | 10.4 | 9.3 | – | – | – | – | – | 7.14 | – |
| CCCCCCCCCOC(=O)CCCCCCCN(CCCCCCCC(=O)OC(CCCCCCCC)CCCCCCCC)CCCN/C(=C/[N+](=O)[O-])NC [Compound 170, Heptadecan-9-yl (E)-8-((3-((1-(methylamino)-2-nitrovinyl)amino)propyl)(8-(nonyloxy)-8-oxooctyl)amino)octanoate] | 0.18 | 96.0 | – | – | 96.7 | – | 6.31 | – | – | – | 6.60 | 5.9 | 5.7 | – | – | – | – | – | – | 5.3 |
| CCCCCCCCCOC(=O)CCCCCCCN(CCCCCCCC(=O)OC(CCCCCCCC)CCCCCCCC)CCCNc1c(N(C)C)c(=O)c1=O [Compound 169, Heptadecan-9-yl 8-((3-((2-(dimethylamino)-3,4-dioxocyclobut-1-en-1-yl)amino)propyl)(8-(nonyloxy)-8-oxooctyl)amino)octanoate] | 0.17 | 87.4 | – | – | 99.4 | – | 6.77. | – | – | – | 7.63 | 4.6 | 4.7 | – | – | – | – | – | – | 3.3 |
